Experimental data reported in patent publication US20050004092A1, “Penem derivatives and antimicrobial agent containing the same” (DAIICHI SUNTORY PHARMA CO., LTD., priority 1995, published 2005).
In brackets after ≈: the same amount, converted by molar mass.

What was measured:
Assay in all cases: antibacterial activity (MIC), standard in vitro dilution test
[1] = tested on: MRSA 31 high-resist. (IPM resist.); type: cell-based, Staphylococcus aureus; conditions: test bacterium strain 10^5 cfu/ml; for MIC: Staphylococcus aureus, MRSA, read-out: MIC, MRSA 31 high-resist. (IPM resist.)
From the text: (§1) With respect to certain compounds (I) of the present invention, their general antibacterial activities and their antibacterial activities (MIC) against various methicillin-resistant strains of Staphylococcus aureus (methicillin-resistant Staphylococcus aureus: MRSA) were investigated. The results will be shown next.
(§2) Of the investigations, the general antibacterial activities were investigated by a standard in vitro dilution test.
(§3) As test bacteria, Staphylococcus aureus 209P JC-1, Escherichia coli NIHJ JC-2 and MRSAs were used.

[2] = tested on: MRSA 33 high-resist. (IPM resist.); type: cell-based, Staphylococcus aureus; conditions: test bacterium strain 10^5 cfu/ml; for MIC: Staphylococcus aureus, MRSA, read-out: MIC, MRSA 33 high-resist. (IPM resist.)
From the text: as §1, §2, §3

[3] = tested on: Escherichia coli NIHJ JC-2 strain; type: cell-based; conditions: for MIC: Escherichia coli, NIHJJC2, test bacterium strain 10^5 cfu/ml, read-out: MIC, Escherichia coli NIHJ JC-2 strain; for MIC, Escherichia coli NIHJ JC-2 strain: test bacterium strain 10^5 cfu/ml
From the text: as §1, §2, §3

[4] = tested on: Staphylococcus aureus 209P JC-1 strain; type: cell-based; conditions: test bacterium strain 10^5 cfu/ml; for MIC: Staphylococcus aureus, 209P, read-out: MIC, Staphylococcus aureus 209P JC-1 strain
From the text: as §1, §2, §3

MIC [1] [mg/L] | MIC [2] [mg/L] | MIC [3] [mg/L] | MIC [4] [mg/L] | MIC, MRSA 31 high-resist. (IPM resist.) [1] [mg/L] | MIC, MRSA 33 high-resist. (IPM resist.) [2] [mg/L] | MIC, Escherichia coli NIHJ JC-2 strain [3] [mg/L] | MIC, Staphylococcus aureus 209P JC-1 strain [4] | SMILES
6.25 (≈ 14 µM) | 3.13 (≈ 7.01 µM) | 6.25 (≈ 14 µM) | 0.1 (≈ 0.224 µM) | – | – | – | – | CC[C@H](O)[C@@H]1C(=O)N2C(C(=O)O)=C(S[C@H]3CCN(C4Cc5ccccc5C4)C3)S[C@H]12 [Ex. 214]
– | – | – | – | 3.13 (≈ 8.45 µM) | 3.13 (≈ 8.45 µM) | 0.39 (≈ 1.05 µM) | ≦0.025 μg/ml | C=CCN1CCC(SC2=C(C(=O)O)N3C(=O)[C@@H]([C@@H](O)CC)[C@H]3S2)C1 (stereo partly drawn) [Ex. 18, (5R,6R)-2-(1-allyl-3-pyrrolidine)-thio-6-((S)-1-hydroxypropyl)penem-3-carboxylic acid]
6.25 (≈ 15.7 µM) | 6.25 (≈ 15.7 µM) | 0.78 (≈ 1.96 µM) | 0.1 (≈ 0.251 µM) | – | – | – | – | CC[C@H](O)[C@@H]1C(=O)N2C(C(=O)O)=C(SC3CCN(C4CCCC4)C3)S[C@H]12 (stereo partly drawn) [Ex. 227]
6.25 (≈ 18.1 µM) | 6.25 (≈ 18.1 µM) | 0.78 (≈ 2.26 µM) | 0.1 (≈ 0.289 µM) | – | – | – | – | CC[C@H](O)[C@@H]1C(=O)N2C(C(=O)O)=C(SCCNC(C)=N)S[C@H]12 [Ex. 131, (5R,6R)-2-(2-(1-iminoethylamino)-ethyl)thio-6-((S)-1-hydroxypropyl)penem-3-carboxylic acid]
3.13 (≈ 6.77 µM) | 3.13 (≈ 6.77 µM) | 0.2 (≈ 0.432 µM) | 0.05 (≈ 0.108 µM) | – | – | – | – | CC[C@H](O)[C@@H]1C(=O)N2C(C(=O)O)=C(S[C@H]3CCN(CCC(=O)c4ccccc4)C3)S[C@H]12 [Ex. 116, (5R,6R)-2-((S)-1-(2-benzoylethyl)-pyrrolidin-3-yl)thio-6-((S).-1-hydroxypropyl)-penem-3-carboxylic acid]
1.56 (≈ 4.13 µM) | 1.56 (≈ 4.13 µM) | 12.5 (≈ 33.1 µM) | 0.05 (≈ 0.132 µM) | – | – | – | – | CC[C@H](O)[C@@H]1C(=O)N2C(C(=O)O)=C(SC3Cc4ccccc4C3)S[C@H]12 [Ex. 225]
0.78 (≈ 2.07 µM) | 1.56 (≈ 4.14 µM) | 12.5 (≈ 33.2 µM) | 0.1 (≈ 0.266 µM) | – | – | – | – | CC[C@H](O)[C@@H]1C(=O)N2C(C(=O)O)=C(SCc3ccc(C#N)cc3)S[C@H]12 [Ex. 239]
– | – | – | – | 3.13 (≈ 8.45 µM) | 3.13 (≈ 8.45 µM) | 0.39 (≈ 1.05 µM) | 0.10 mg/L (≈ 0.27 µM) | C=CCN1CCC(SC2=C(C(=O)O)N3C(=O)[C@@H]([C@@H](O)CC)[C@H]3S2)C1 (stereo partly drawn) [Ex. 17, (5R,6R)-2-(1-allyl-3-pyrrolidine)-thio-6-((S)-1-hydroxypropyl)penem-3-carboxylic acid]
3.13 (≈ 6.98 µM) | 3.13 (≈ 6.98 µM) | 0.2 (≈ 0.446 µM) | 0.1 (≈ 0.223 µM) | – | – | – | – | CC[C@H](O)[C@@H]1C(=O)N2C(C(=O)O)=C(S[C@H]3CCN(CC(=O)c4ccccc4)C3)S[C@H]12 [Ex. 111, (5R,6R)-6-((S)-1-hydroxypropyl)-2-((S)-1-phenacylpyrrolidin-3-yl)thiopenem-3-carboxylic acid]
3.13 (≈ 7.01 µM) | 3.13 (≈ 7.01 µM) | 12.5 (≈ 28 µM) | 0.05 (≈ 0.112 µM) | – | – | – | – | CC[C@H](O)[C@@H]1C(=O)N2C(C(=O)O)=C(SC3CCN(C/C=C/c4ccccc4)C3)S[C@H]12 (stereo partly drawn) [Ex. 228]
3.13 (≈ 8 µM) | 3.13 (≈ 8 µM) | 3.13 (≈ 8 µM) | 0.1 (≈ 0.255 µM) | – | – | – | – | CC[C@H](O)[C@@H]1C(=O)N2C(C(=O)O)=C(SCc3nc4ccccc4[nH]3)SC12 (stereo partly drawn) [Ex. 205]
6.25 (≈ 17.4 µM) | 6.25 (≈ 17.4 µM) | 3.13 (≈ 8.73 µM) | 0.39 (≈ 1.09 µM) | – | – | – | – | CC[C@H](O)[C@@H]1C(=O)N2C(C(=O)O)=C(SCCN3CCCC3)S[C@H]12 [Ex. 143, (5R,6R)-6-((S)-1-hydroxypropyl)-2-(2-(pyrrolidin-1-yl)ethyl)thiopenem-3-carboxylic acid]
6.25 (≈ 13.9 µM) | 6.25 (≈ 13.9 µM) | 1.56 (≈ 3.46 µM) | 0.1 (≈ 0.222 µM) | – | – | – | – | CC[C@H](O)[C@@H]1C(=O)N2C(C(=O)O)=C(S[C@H]3CCN(C[C@@H](O)c4ccccc4)C3)S[C@H]12 [Ex. 107, (5R,6R)-6-((S)-1-hydroxypropyl)-2-(1-((S)-2-hydroxy-2-phenylethyl)pyrrolidin-3-yl)thiopenem-3-carboxylic acid]
3.13 (≈ 8.83 µM) | 3.13 (≈ 8.83 µM) | 6.25 (≈ 17.6 µM) | 0.2 (≈ 0.564 µM) | – | – | – | – | CC[C@H](O)[C@@H]1C(=O)N2C(C(=O)O)=C(SCCn3cccc3)S[C@H]12 [Ex. 147, (5R,6R)-6-((S)-1-hydroxypropyl)-2-(2-(1-pyrrolyl)ethyl)thiopenem-3-carboxylic acid]
3.13 (≈ 7.68 µM) | 3.13 (≈ 7.68 µM) | 0.78 (≈ 1.91 µM) | 0.05 (≈ 0.123 µM) | – | – | – | – | CC[C@H](O)[C@@H]1C(=O)N2C(C(=O)O)=C(S[C@H]3CCN(c4ccncc4)C3)S[C@H]12 [Ex. 203]
6.25 (≈ 13.4 µM) | 6.25 (≈ 13.4 µM) | 0.78 (≈ 1.67 µM) | 0.1 (≈ 0.214 µM) | – | – | – | – | CC[C@H](O)[C@@H]1C(=O)N2C(C(=O)O)=C(S[C@H]3CCN(CC(=O)c4ccc(F)cc4)C3)S[C@H]12 [Ex. 112, (5R,6R)-2-((S)-1-(2-p-fluorophenyl-2-oxoethyl)pyrrolidin-3-yl)thio-6-((S)-1-hydroxypropyl)penem-3-carboxylic acid]
3.13 (≈ 8.76 µM) | 3.13 (≈ 8.76 µM) | 0.78 (≈ 2.18 µM) | 0.1 (≈ 0.28 µM) | – | – | – | – | CC[C@H](O)[C@@H]1C(=O)N2C(C(=O)O)=C(SC3CN(C(C)=N)C3)S[C@H]12 [Ex. 255]
6.25 (≈ 13.9 µM) | 6.25 (≈ 13.9 µM) | 12.5 (≈ 27.7 µM) | 0.1 (≈ 0.222 µM) | – | – | – | – | CC[C@H](O)[C@@H]1C(=O)N2C(C(=O)O)=C(S[C@H]3CCN(CCOc4ccccc4)C3)S[C@H]12 [Ex. 210]
